Data on 1 molecule can be found in patent US20190070174A1, “METHODS OF TREATING NEURODEGENERATIVE DISEASES” (priority 2016, published 2019).

One data set has as its system mouse Atxn3. The data set is described as follows: Organotypic brain slice cultures from YACMJD84.2 (Q84) mice, immunoblotting. In kind it is cell-based. The note with it: sagittal brain slices treated for 48 hours, cerebellum and brainstem. The method, then: (§1) Nine slices per brain were used in each set of cultures. […] After 48 hours of incubation at 37° C./5% CO2, brain slices were assessed for ATXN3 levels by immunoblotting or immunofluorescence and for cell viability. For immunoblotting, each slice was macrodissected into separate cerebellum and brainstem that were immediately frozen at −80° C. in 80 μL and 150 μL of cold RIPA buffer containing protease inhibitors (Complete, Roche Diagnostics), respectively. Cell viability was assessed on treated slices by incubation in propidium iodide (PI) 1 μg/mL in culture medium for 1 hour. Slices were then mounted in PROLONG Gold Antifade Reagent (Invitrogen) and imaged using a FV500 Olympus confocal microscope.
Protein lysates from cell cultures, mouse brain slices or mouse brains were obtained by lysis in RIPA buffer containing protease inhibitors (Complete, Roche Diagnostics), followed by sonication and centrifugation. The supernatants (soluble protein fractions) were collected, total protein concentration was determined using the BCA method (Pierce) and then stored at −80° C. […] Insoluble proteins were then quantified, and 100 μg were loaded in a filter trap assay apparatus and transferred to a nitrocellulose membrane (0.45 μm pore) that was incubated overnight with rabbit anti-MJD antibody (1:5000) at 4° C. […] Band intensity was quantified by densitometry using ImageJ. […]
In general terms: Immunoblotting shows a protein as a band on a membrane.

The test system of the next data set is ATXN3Q26. The data set is described as follows: Thioflavin T (ThT) fluorescence fibril formation assay. In kind it is biochemical, human. The note with it: ATXN3Q26 10 μM, compound 400 μM. The method, then: (§2) pGEX-6P1 plasmids encoding GST-ATXN3Q26 and GST-ATXN3Q55 were transformed in Rosetta (DE3) BL21 cells. Colonies grown overnight in LB/ampicillin/chloramphenicol plates at 37° C. were resuspended in 150 mL of the same selection medium and incubated at 37° C., 230 rpm for 2 hours. Bacterial cultures of 1 L of medium were prepared by inoculating 50 mL of the pre-culture and incubating at 37° C., 230 rpm until reaching an OD (600 nm) of 0.6 to 0.8. Expression of fusion proteins was then induced by adding 1 mM isopropyl-1-thio-D-galactopyranoside (IPTG) for 3 hours at 37° C. Cells were collected by centrifugation and stored at −20° C. […] Chromatography fractions were analyzed by SDS-PAGE, and the ones containing pure proteins were concentrated and protein concentration was determined in the Nanodrop (Thermo Scientific) by absorption at 280 nm.
(§3) Samples and blank control (only buffer) (110 μL) were dispensed in each well of a Black/Clear flat bottom 96-well plate (Corning), which was sealed and incubated at 37° C. with agitation in a FLUOstar Omega (BMG Labtech Inc) plate reader. Fluorescence of three replicates of each sample was measured every 10 min for up to 5 days. The […] wavelengths of the filter were 440 nm and 490 nm, respectively, and readings were taken using 90% gain adjustment. Values for protein solutions were normalized to readings of blank buffer.

Data set [1] relates to ATXN3Q55. Described as above. The note with it: ATXN3Q55 10 μM, compound 400 μM. In kind it is biochemical, human. The method, then: as §2, §3
Data set [2] concerns high molecular weight (HMW) ATXN3 species. Description: ATXN3 immunoblotting of protein lysates from fly heads. In kind it is in vivo, Drosophila.
For data set [3] the following is noted: mouse, in vivo; cited from earlier work.
For another data set, the system named is endogenous mouse Atxn3. The data set is described as follows: Subchronic treatment of Q84 mice, immunoblot of soluble lysates. To be noted: 15 mg/kg IP daily for 10 days. It is filed as in vivo. The method, then: (§4) YACMJD84.2 transgenic mice were housed in cages with a maximum number of five animals and maintained in a standard 12-hour light/dark cycle with food and water ad libitum. Genotyping was performed using DNA isolated from tail biopsy at the time of weaning, and genotypes of all studied mice were confirmed using DNA extracted from tails collected post-mortem. […] Five hours after the final injection, mice were anesthetized with ketamine/xylazine and perfused transcardially with phosphate buffered saline (PBS) (for RNA and protein studies), and brains were immediately placed on dry ice and stored at −80° C.
(§5) Protein lysates from cell cultures, mouse brain slices or mouse brains were obtained by lysis in RIPA buffer containing protease inhibitors (Complete, Roche Diagnostics), followed by sonication and centrifugation. The supernatants (soluble protein fractions) were collected, total protein concentration was determined using the BCA method (Pierce) and then stored at −80° C. […] Pellets corresponding to insoluble protein fractions were resuspended in 100 μL of Laemmli buffer 2× and boiled for 10 min. Insoluble proteins were then quantified, and 100 μg were loaded in a filter trap assay apparatus and transferred to a nitrocellulose membrane (0.45 μm pore) that was incubated overnight with rabbit anti-MJD antibody (1:5000) at 4° C. Bound primary antibodies were visualized by incubation with a peroxidase-conjugated anti-mouse or anti-rabbit secondary antibody (1:10000; Jackson Immuno Research Laboratories) followed by treatment with the ECL-plus reagent (Western Lighting, PerkinElmer) and exposure to autoradiography films. Band intensity was quantified by densitometry using ImageJ.
Five hours after the final injection on day 10, mice were sacrificed and brains collected for total protein and RNA extraction from different regions: brainstem, cerebellum, cervical spinal cord, and forebrain.

The test system of data set [4] is ATXN3Q55. The data set is described as follows: Native PAGE analysis at the end of the ThT assay. In kind it is biochemical, human.
For another data set, the system named is insoluble ATXN3. Description: Subchronic treatment of Q84 mice, filter trap analysis of insoluble fractions. It is filed as in vivo, human. To be noted: brainstem insoluble fractions. The method, then:
as §4
Protein lysates from cell cultures, mouse brain slices or mouse brains were obtained by lysis in RIPA buffer containing protease inhibitors (Complete, Roche Diagnostics), followed by sonication and centrifugation. The supernatants (soluble protein fractions) were collected, total protein concentration was determined using the BCA method (Pierce) and then stored at −80° C. […] Pellets corresponding to insoluble protein fractions were resuspended in 100 μL of Laemmli buffer 2× and boiled for 10 min. Insoluble proteins were then quantified, and 100 μg were loaded in a filter trap assay apparatus and transferred to a nitrocellulose membrane (0.45 μm pore) that was incubated overnight with rabbit anti-MJD antibody (1:5000) at 4° C. […] Band intensity was quantified by densitometry using ImageJ.

The test system of another data set is human mutant ATXN3Q84. In kind it is cell-based. The note with it: sagittal brain slices treated for 48 hours, cerebellum and brainstem. The method, then: as §1, §5
To assess the efficacy of the five compounds to reduce ATXN3 levels in the mammalian brain, secondary screens in organotypic brain slice cultures derived from hemizygous YACMJD84.2 (Q84) transgenic mice were performed.

Another data set deals with human ATXN3 transcripts. The data set is described as follows: Subchronic treatment of Q84 mice, quantitative RT-PCR. In kind it is in vivo. To be noted: brainstem, 15 mg/kg IP daily for 10 days. The method, then:
as §4
(§6) Reverse transcription of 1.5 μg of total RNA per sample was performed using the iScript cDNA synthesis kit (Bio-RAD). Human ATXN3 and mouse Atxn3, Drd2, 5HT1A, 5HT2A and Gapdh (housekeeping) transcript levels were accessed by quantitative real-time PCR. Relative gene expression was determined using the ΔΔCT method, normalizing for Gapdh mRNA levels.

Another data set concerns mouse Atxn3 transcripts. The data set is described as above. It is filed as in vivo. The note with it: brainstem, 15 mg/kg IP daily for 10 days. The method, then: as §4, §6

For `O=C1CCc2ccc(OCCCCN3CCN(c4cccc(Cl)c4Cl)CC3)cc2N1` [aripiprazole], the “levels of mouse Atxn3” value in the data set on mouse Atxn3 was “reduced levels”. In the data set with ATXN3Q26, the “fibril formation by normal ATXN3Q26” value was “did not interfere with fibril formation”. In addition, the “kinetics of ATXN3Q55 fibril formation in the presence or absence of compound” value in the data set on ATXN3Q55 [1] is listed as “identical”. Also, the “HMW ATXN3 species, of levels in vehicle-treated flies” value in data set [2] (day 12, 50 μM) was determined as 0.73; in data set [2] (day 15, 50 μM), 0.41; in data set [2] (day 19, 50 μM), 0.53. The maximum tolerable dose in data set [3] is 15 mg/kg. The “levels of endogenous mouse Atxn3” value with endogenous mouse Atxn3 was “trend toward decreased levels”. For the same molecule, in the data set with ATXN3Q55 [4], the “HMW or other species of ATXN3Q55” value is on record as “no differences”. For the same molecule, the “insoluble ATXN3 vs vehicle” value in the data set with insoluble ATXN3 is on record as “no differences”. The “levels of human mutant ATXN3Q84” value with human mutant ATXN3Q84 is recorded as “reduced levels”. The “human ATXN3 transcript levels vs vehicle-treated mice” value with human ATXN3 transcripts is given as “similar”. Besides, in the data set with mouse Atxn3 transcripts, the “mouse Atxn3 transcript levels vs vehicle-treated mice” value was “similar”.
